Drawing on article PMC8991199, “Promiscuity mapping of the S100 protein family using a high-throughput holdup assay” (Scientific Reports, 2022), this text covers Kd for one compound.

Common to all, as to format: binding
The target in one assay is T1, S100A5 (Homo sapiens, UniProt P33763).
T1 sequence (P33763 1-92): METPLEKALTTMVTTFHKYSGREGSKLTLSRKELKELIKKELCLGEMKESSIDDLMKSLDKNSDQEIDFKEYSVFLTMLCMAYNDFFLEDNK
Nature of the assay: direct fluorescence polarization (FP), S100A5. The settings on record: direct FP, S100A5, 50 nM labeled foldamer, 20 mM HEPES pH 7.5, 150 mM NaCl, 1 mM CaCl2, 0.5 mM TCEP, 0.01% Tween20, quadratic fit, mean ± SEM, three technical repeats, threshold 1 mM. How it is done: (§1) HTP (and also low-throughput) measurements generally need to be validated by an orthogonal approach to eliminate experimental artifacts. […] This way, we chose WL, IF, WW, YF, IL, VL, TW, RF, RR, TI, TM, and after resynthesizing with a fluorescent label at the C-terminus (Figs. S15–S26, Table S1), the S100ome was tested against the labeled foldamers by direct fluorescence polarization (FP) (Fig. 3A). In this assay, the association of the fluorescently labeled foldamer and the S100 protein of interest is monitored, through the change in polarization of the emitted light by the fluorophore upon the binding event. In direct FP, the presence of the fluorophore might change the binding affinity of some foldamers. […] Nevertheless, we assumed that the fluorophore would affect all foldamers that target the same binding site to the same degree, because the foldamer scaffold is rigid. Defining the threshold of detection at the dissociation constant of 1 mM, we identified 87 interactions between the selected foldamer fragments and the S100ome out of 220 possible interactions (Table 1, Fig. S4-14).
To ensure that foldamer fragments bind to the hydrophobic binding groove of S100 proteins, which opens upon binding of calcium ions, we performed FP experiments on a selected S100 protein, S100A5, in the presence of EDTA and TRTK12, an S100-binding peptide of 12 amino acids. […] Based on the similarity and redundancy among the S100 family, it can be assumed that all S100 proteins bind the members of the H14 foldamer library through their hydrophobic binding pocket in a Ca^2+-dependent manner.
(§2) Briefly, S100 proteins were cloned into a modified pET15b vector with a TEV protease cleavable N-terminal His6-tag and expressed in Escherichia coli BL21 (DE3) cells, followed by Ni^2+-affinity chromatography. For HU assay, S100 proteins were further purified by either hydrophobic interaction chromatography or ion exchange chromatography without the cleavage of the N-terminal His6-tag applying standard conditions. For direct FP measurements, the N-terminal His6-tag was cleaved, and the S100 proteins were purified by hydrophobic interaction chromatography, ion exchange chromatography or size exclusion chromatography. The quality of the recombinant proteins was checked by SDS-PAGE analysis in all cases. The concentration of the recombinant S100 proteins was determined by UV spectrophotometry using the absorbance of Tyr and Trp residues.
(§3) In direct fluorescence polarization assays, S100 proteins were diluted in a buffer containing 50 nM labeled foldamer, 20 mM HEPES pH 7.5, 150 mM NaCl, 1 mM CaCl2, 0.5 mM TCEP and 0.01% Tween20. The dilution series (50 µl) were divided into three technical repeats and transferred (15 µl) to a 384-well microplate. In competitive fluorescence polarization assays, the buffer applied in direct measurements was supplemented with the S100 protein of interest to reach a saturation of 60–80%. This mixture was titrated with the competitor (i.e. the unlabeled peptide). Fluorescence polarization was measured in 8 different S100 concentrations (one of which contained no S100 protein) on a Synergy H4 plate reader using 485 ± 20 nm and 528 ± 20 nm band-pass filters for excitation and emission, respectively. The Kd values were obtained by fitting the data from the FP measurements with the python-based ProFit software using quadratic and competitive binding equation for direct and competitive FP, respectively. The detection threshold was based on two parameters. First, we rejected all fitted dissociation constants above 1 mM.
Background: In fluorescence polarisation assays a small probe gives low polarisation when free and higher when bound to something large.

For the next assay, the target named is T2, S100A9 (Homo sapiens, UniProt P06702).
T2 sequence (P06702 1-114): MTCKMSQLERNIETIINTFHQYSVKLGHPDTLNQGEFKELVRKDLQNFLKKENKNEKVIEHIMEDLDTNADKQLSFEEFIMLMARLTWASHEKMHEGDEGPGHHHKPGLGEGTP
As to the kind of experiment: direct fluorescence polarization (FP), S100A9. The settings on record: S100A9, 50 nM labeled foldamer, 20 mM HEPES pH 7.5, 150 mM NaCl, 1 mM CaCl2, 0.5 mM TCEP, 0.01% Tween20, quadratic fit, mean ± SEM, three technical repeats, threshold 1 mM. How it is done: as §1, §2, §3

Another assay has as its target T3, S100A3 (Homo sapiens, UniProt P33764).
T3 sequence (P33764 1-101): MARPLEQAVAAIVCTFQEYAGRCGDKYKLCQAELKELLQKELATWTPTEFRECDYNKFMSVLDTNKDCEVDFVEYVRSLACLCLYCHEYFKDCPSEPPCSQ
As to the kind of experiment: direct fluorescence polarization (FP), S100A3. To be noted: S100A3, 50 nM labeled foldamer, 20 mM HEPES pH 7.5, 150 mM NaCl, 1 mM CaCl2, 0.5 mM TCEP, 0.01% Tween20, quadratic fit, mean ± SEM, three technical repeats, threshold 1 mM. How it is done: as §1, §2, §3

In another assay the target is T4, S100A14 (Homo sapiens, UniProt Q9HCY8).
T4 sequence (Q9HCY8 1-104): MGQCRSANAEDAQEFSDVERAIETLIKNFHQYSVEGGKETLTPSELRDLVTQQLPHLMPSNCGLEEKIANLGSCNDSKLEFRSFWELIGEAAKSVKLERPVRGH
As to the kind of experiment: direct fluorescence polarization (FP), S100A14. The settings on record: S100A14, 50 nM labeled foldamer, 20 mM HEPES pH 7.5, 150 mM NaCl, 1 mM CaCl2, 0.5 mM TCEP, 0.01% Tween20, quadratic fit, mean ± SEM, three technical repeats, threshold 1 mM. Here is the method: as §1, §2, §3

Another assay addresses T5, S100A1 (Homo sapiens, UniProt P23297).
T5 sequence (P23297 1-94): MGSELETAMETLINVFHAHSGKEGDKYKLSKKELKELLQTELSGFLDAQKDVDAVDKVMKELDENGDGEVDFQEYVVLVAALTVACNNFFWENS
As to the kind of experiment: direct fluorescence polarization (FP), S100A1. The settings on record: S100A1, 50 nM labeled foldamer, 20 mM HEPES pH 7.5, 150 mM NaCl, 1 mM CaCl2, 0.5 mM TCEP, 0.01% Tween20, quadratic fit, mean ± SEM, three technical repeats, threshold 1 mM.
Excerpt: (§4) HTP (and also low-throughput) measurements generally need to be validated by an orthogonal approach to eliminate experimental artifacts. […] In this assay, the association of the fluorescently labeled foldamer and the S100 protein of interest is monitored, through the change in polarization of the emitted light by the fluorophore upon the binding event. In direct FP, the presence of the fluorophore might change the binding affinity of some foldamers. […] Nevertheless, we assumed that the fluorophore would affect all foldamers that target the same binding site to the same degree, because the foldamer scaffold is rigid.
as §2, §3

A further assay has as its target S100A6 (Homo sapiens, UniProt P06703). Nature of the assay: direct fluorescence polarization (FP), S100A6.
Excerpt: as §4, §2, §3

Molecules are shown by their SMILES.

As usually defined, the Kd is the free concentration of one partner at which half of the binding sites on the other are occupied at equilibrium, for simple one-to-one binding. As for `NC(=O)[C@H](CCCCNC(=O)c1ccc2c(c1)C1(OC2=O)c2ccc(O)cc2Oc2cc(O)ccc21)NC(=O)CNC(=O)[C@H]1CCCC[C@@H]1NC(=O)C[C@H](Cc1c[nH]c2ccccc12)NC(=O)[C@H]1CCCC[C@@H]1NC(=O)[C@H]1CCCC[C@@H]1NC(=O)C[C@H](Cc1c[nH]c2ccccc12)NC(=O)[C@H]1CCCC[C@@H]1N` [fWW], the Kd is 77 ± 2.8 µM at S100A5; greater than 1000 µM on S100A9; 310 ± 21 µM at S100A3; greater than 1000 µM on S100A14; 110 ± 19 µM at S100A1; 100 ± 3.2 µM on S100A6.
